Reference: patent US20210196737A1, “USE OF TREZASTILBENOSIDE IN MANUFACTURE OF PRODUCT FOR TREATING AND/OR PREVENTING NON-ALCOHOLIC FATTY LIVER DISEASE” (KPC PHARMACEUTICALS, INC., priority 2019, published 2021)

Assays:
[1] = safety research mentioned in background; cited from earlier work
[2] = system: non-alcoholic fatty liver disease (NAFLD) model mice; experiment: Gross observation and HE staining of liver of NAFLD model mice; type: in vivo, C57BL/6 mice
Description: (§1) After 1 week of adaptive feeding, 44 C57 mice were divided into a control group (12 mice) and a model group (32 mice) according to the random number method. The normal control group was given ordinary diet, and the model group was given high-sugar and high-fat diet. After feeding for 8 weeks, randomly select 2 animals in each of the control group and the model group. After pathological examination confirmed that the modeling was successful, the model animals were divided into groups.
(§2) The model animals were divided according to random number method into 3 groups of 10 mice each, namely model control group (equal volume of sodium chloride injection solution), Trezastilbenoside high dose group (20 mg/kg) and Trezastilbenoside low dose group (10 mg/kg). The mice in each administration group were administered intragastrically with the corresponding drug, once a day continuously for 4 weeks, while being fed with the high-sugar and high-fat feed continuously. The mice in the normal control group (equal volume of sodium chloride injection solution) were feed with the ordinary feed.
The fresh liver tissue was immersed and fixed in 4% formaldehyde solution overnight for 24 h, dehydrated through 75%-95%-100% ethanol gradient, embedded in paraffin, sectioned into 4 μm, and conventionally stained with hematoxylin-eosin, to observe the pathological changes of the liver tissue under an optical microscope (HE, 200×).

[3] = system: non-alcoholic fatty liver disease (NAFLD) model mice; experiment: Body weight, wet liver weight and liver index in high-sugar high-fat diet NAFLD model mice; type: in vivo, C57BL/6 mice; details: for Weight: high-sugar high-fat feed; for Weight / Wet liver weight: mean ± s, n=10
Description: as §1, §2
After the last administration, the mice were fasted but had access to water for 12 h, and then sacrificed after blood was taken. The body mass and liver mass of each mouse were weighed to calculate the liver index by the following formula.
liver index=(liver wet mass/body mass)×100% (wet liver mass/body mass).

[4] = system: non-alcoholic fatty liver disease (NAFLD) model mice; experiment: Levels of serum TC, TG, HDL, LDL, AST and ALT in NAFLD model mice; type: in vivo, C57BL/6 mice; details: x ± s, n=10
Description: as §1, §2
About 1 mL of blood, taken via mouse eyeballs, was placed into a 1.5 mL centrifuge tube, and then centrifuged at 3000 r/min for 10 min to obtain the supernatant. The levels of TC, TG, HDL, LDL, AST and ALT in the serum were measured with a microplate reader strictly under the operating instructions of the assay kit.

[5] = system: non-alcoholic fatty liver disease (NAFLD) model mice; experiment: TC and TG content in liver tissue of NAFLD model mice; type: in vivo, C57BL/6 mice
Description: as §1, §2
About 100 mg of liver tissue weighed, was put into 900 μL absolute ethanol to make a 10% tissue homogenate under an ice bath. Then the supernatant was separated out through a centrifugation separation at 3000 r/min for 15 min, and collected into a 1.5 mL centrifuge tube for the measurement of TC and TG content in the liver tissue.

[6] = safety research mentioned in background; cited from earlier work; remark: listed apart in the source
[7] = HE, 200x, Trezastilbenoside group
[8] = high dose 20 mg/kg intragastric once a day for 4 weeks
[9] = low dose 10 mg/kg intragastric once a day for 4 weeks
[10] = high dose 20 mg/kg intragastric 4 weeks
[11] = low dose 10 mg/kg intragastric 4 weeks

OC[C@H]1O[C@@H](Oc2cc(/C=C/c3cc(O)cc(O)c3)ccc2O)[C@H](O)[C@@H](O)[C@@H]1O [Trezastilbenoside]
Toxic side reactions and death in acute toxicity tests [1]: no toxic side reactions and death occurred
HE observation of mouse liver: fat droplets and pathological morphology, compared with the model group [2, 7]: smaller and fewer, the pathological morphology of liver tissue was significantly improved
HE observation of mouse liver: infiltration of inflammatory cells [2, 7]: the infiltration of inflammatory cells was not obvious
Gross observation of mouse liver: colour, texture and shape ([2]; low and high dose groups (10 and 20 mg/kg)): between the normal control group and the model group, and the texture and shape tended to be normal
Obesity induced by high sugar and high fat, compared with the model group ([3]; Trezastilbenoside administration group, 4 weeks intragastric): has a tendency to reduce the obesity induced by high sugar and high fat in mice
Weight [3, 8]: 33.8 ± 0.74 g
Liver index (%) ([3]; high dose 20 mg/kg intragastric once a day for 4 weeks, liver wet mass/body mass x 100%): 0.51 ± 0.05 %
Wet liver weight [3, 8]: 1.72 ± 2.7 g
Weight [3, 9]: 35.0 ± 0.62 g
Wet liver weight [3, 9]: 1.84 ± 3.0 g
ALT (U/L) [4, 10]: 78.30 ± 11.53 U/L
AST (U/L) [4, 10]: 118.92 ± 10.75 U/L
HDL [4, 10]: 0.45 ± 0.16 mmol/L
LDL [4, 10]: 0.41 ± 0.30 mmol/L
TC [4, 10]: 3.43 ± 0.17 mmol/L
TG [4, 10]: 0.99 ± 0.11 mmol/L
ALT (U/L) [4, 11]: 122.45 ± 27.37 U/L
AST (U/L) [4, 11]: 147.73 ± 52.98 U/L
HDL [4, 11]: 0.27 ± 0.67 mmol/L
LDL [4, 11]: 0.47 ± 0.13 mmol/L
TC [4, 11]: 5.53 ± 0.52 mmol/L
TG [4, 11]: 2.67 ± 0.19 mmol/L
TC [5, 10]: 4.23 ± 0.87 mg/g
TG [5, 10]: 1.96 ± 0.99 mg/g
TC [5, 11]: 6.53 ± 0.59 mg/g
TG [5, 11]: 2.12 ± 0.58 mg/g
Chromosome aberrations or mutagenesis in the genetic test [6]: no chromosome aberrations or mutagenesis were found
